Results published in patent publication EP0728480A1, “Use of ifenprodil for treatment of elevated intraocular pressure” (ROHTO PHARMACEUTICAL CO., LTD., priority 1995, dated 1996).
Where a name gives a salt, the structure may show the parent alone.

System: rabbits with normal intraocular pressure
Assay: Experiment 1: ocular hypotensive effect of eye drops (applanation pneumatonograph)
Format: in vivo, Male Dutch species coloured rabbits
Details: for Difference in IOP between the control and test eyes: 50 µl instilled
Protocol: The ocular hypotensive effect of the eye drops of this invention was investigated in rabbits. The same experiment was also conducted using a representative β-adrenergic blocking agent, and its ocular hypotensive effect was compared with that of eye drops of this invention. Methods: According to the formulations described in Examples 1, 2 and 3, three kinds of eye drops respectively containing 0.5, 0.05 and 0.005% of the compound (1) were prepared. As a negative control, eye drops not containing compound (1), which is eye drops described in Reference Example below, were used. The positive control was commercially available eye drops containing timolol maleate (0.5% equivalent of free base) as an active ingredient. Male Dutch species coloured rabbits (body weight: ca. 2 kg) with normal intraocular pressure were used in the experiment. Each of the test solutions (three kinds of eye drops containing 0.5, 0.05 or 0.005% of ifenprodil) (50 µl) was instilled into one eye of each rabbit, and the control solution free of ifenprodil (50 µl), the eye drops described in Reference Example, into the fellow eye which served as a control. For each solution, six rabbits were used. After anesthesia of the corneal surface by instillating 5 µl of 0.4% oxybuprocaine hydrochloride, the intraocular pressure was measured using an applanation pneumatonograph (Alcon) before and after the instillation of the test solution and control solution. Measurement of intraocular pressure after the instillation was conducted with one-hour intervals until six hours - nine hours post-instillation.

[1] = eye drops 0.5%, one hour after instillation, difference from control eye

Compound | Difference in IOP between the control and test eyes (eye drops 0.5% free base, 1 hr) | Difference in IOP between the control and test eyes (eye drops 0.5% free base, 2 hr) | Difference in IOP between the control and test eyes (eye drops 0.5% free base, 4 hr) | Difference in IOP between the control and test eyes (eye drops 0.5% free base, 6 hr) | average IOP reduction [1] | average IOP reduction (eye drops 0.5%, two hours after administration) | IOP reduction (eye drops 0.005%) | Difference in IOP between the control and test eyes (eye drops 0.005% free base, 1 hr) | Difference in IOP between the control and test eyes (eye drops 0.005% free base, 2 hr) | Difference in IOP between the control and test eyes (eye drops 0.005% free base, 4 hr) | Difference in IOP between the control and test eyes (eye drops 0.005% free base, 6 hr) | Difference in IOP between the control and test eyes (eye drops 0.05% free base, 1 hr) | Difference in IOP between the control and test eyes (eye drops 0.05% free base, 2 hr) | Difference in IOP between the control and test eyes (eye drops 0.05% free base, 4 hr) | Difference in IOP between the control and test eyes (eye drops 0.05% free base, 6 hr) | average IOP reduction (eye drops 0.05%, one hour after administration) | duration of ocular hypotensive effect (eye drops 0.5%) | time of maximal IOP reduction (eye drops 0.5%)
CC(C)(C)NC[C@H](O)COc1nsnc1N1CCOCC1 [Timolol maleate, timolol maleate, reference compound] | -0.88 mmHg | -0.58 mmHg | -0.25 mmHg | -0.13 mmHg | 0.9 mmHg | 0.6 mmHg | – | – | – | – | – | – | – | – | – | – | – | –
CC(C(O)c1ccc(O)cc1)N1CCC(Cc2ccccc2)CC1 (centres unmarked) [Compound (1), 2-(4-benzylpiperidino)-1-(4-hydroxyphenyl)-1-propanol] | -2.67 mmHg | -2.17 mmHg | -1.17 mmHg | -1.13 mmHg | 2.7 mmHg | – | produced IOP reduction which varies depending on concentration of compound (1) | -0.79 mmHg | -0.75 mmHg | -0.79 mmHg | -0.17 mmHg | -1.79 mmHg | -0.96 mmHg | -0.67 mmHg | -0.38 mmHg | 1.8 mmHg | retained for nine hours after instillation | one hour after instillation
